Laboratory results published in US11279733B2, “Peptide antibiotics” (priority 2017, dated 2022).
Converted amounts (≈) assume the structure as drawn. Read-outs that look alike come from different tables or passages of the source. Positions of bridges follow the written chain, without caps; N, C: chain ends. Non-standard residues stand in square brackets, D forms with d. Residues, ends and D or L forms follow the SMILES beside them. *: point of attachment. Decanoyl(3R-OH) = CCCCCCC[C@@H](O)CC(=O)*; dOrn = NCCC[C@@H](N)C(=O)O; dDab = NCC[C@@H](N)C(=O)O; dDap = NC[C@@H](N)C(=O)O; Dab = NCC[C@H](N)C(=O)O; X5 = O=C(CCCCCCCO)*

How the values were obtained:
A. baumannii ATCC 19606 = tested on: A. baumannii ATCC 19606
How it was run: (§1)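 Mid-log cultures grown in Mueller Hinton broth at 37° C were tested by 2-fold broth microdilution at 5×10^5 CFU/mL final. Compounds were dissolved in water and tested over a final range of 32 to 0.015 μg/mL.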

A. baumannii GN_093 PmxR = tested on: A. baumannii GN_093 PmxR
How it was run: as §1

E. coli ATCC 25922 = tested on: E. coli ATCC 25922
How it was run: as §1

K. pneumoniae ATCC 13883 = tested on: K. pneumoniae ATCC 13883
How it was run: as §1

[1] = tested on: K. pneumoniae ATCC 700603, MDR
How it was run: as §1

[2] = tested on: K. pneumoniae ATCC BAA-2146, NDM-1 pos
How it was run: as §1

[3] = tested on: K. pneumoniae GN_102 PmxR
How it was run: as §1

[4] = tested on: K. pneumoniae GN_106, PmxR
How it was run: as §1

P. aeruginosa ATCC 27853 = tested on: P. aeruginosa ATCC 27853
How it was run: as §1

[5] = tested on: P. aeruginosa GN_043, PmxR; conditions: P. aeruginosa GN_043, PmxR
How it was run: as §1

[6] = tested on: P. aeruginosa GN_105, PmxR
How it was run: as §1

[7] = tested on: S. aureus ATCC 25923, MSSA
How it was run: as §1

in vitro [8] = conditions: human
How it was run: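 Viability is measured by resazurin reduction (5 μM, 2 h, 37 °C) after cells seeded at 4000 per well are treated with compound for 24 h.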

in vitro [9] = conditions: human; remark: listed apart in the source
How it was run: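 HK2 cells were seeded at 2000 per well in DMEM/F12 with 10% FBS and left to attach for 24 h at 37 °C, 5% CO2. They were then exposed for 24 h to 3-fold peptide dilutions starting from 600 μM solutions in quadruplicate. LDH release was read at 450 nm, and CC50 was fitted from dose-response curves.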

in vitro [10] = conditions: human; remark: listed apart in the source
Description: Cytotoxicity of the synthesised peptides was evaluated by comparison with commercially available colistin (polymyxin E), polymyxin B (Sigma chemical Co., St. Louis, Mo., U.S.A.) and synthetic octapeptin C4 by conducting lactate dehydrogenase (LDH) assay. CC50 values calculated based on curve fitting of dose dependent inhibition of cell growth represented the cytotoxicity of the peptide. Human kidney 2 (HK2) cells were seeded as 2000 cells per well in a 384 well cell culture plate in a final volume of 20 μL in DMEM/F12 medium (Invitrogen #11330057), in which 10% of FBS was added. Cells were incubated for 24 hours at 37° C., 5% CO2 to allow cells to attach to the plates. Similar conditions were employed for HEK293 and HepG2 cytotoxicity assays.
Cytotoxicity to HEK293 and HepG2 cells was determined using the resazurin assay (McMillian, M. K.; Li, L.; Parker, J. B.; Patel, L.; Zhong, Z.; Gunnett, J. W.; Powers, W. J.; Johnson, M. D. An improved resazurin-based cytotoxicity assay for hepatic cells; Cell Biol. Toxicol. 2002, 18, 157-173; O'Brien, J.; Wilson, I.; Orton, T.; Pognan, F. Investigation of the Alamar Blue (resazurin) fluorescent dye for the assessment of mammalian cell cytotoxicity. Eur. J. Biochem. 2000, 267, 5421-5426). In brief, HEK293 and HepG2 cells were seeded at 4000 cells/well in black-wall, clear-bottom 384-well plates (Corning, Australia) and incubated for 24 h at 37° C., 5% CO2. Compounds were then added into each well. After 24 h incubation, 5 μM resazurin was added per well and incubated at 37° C. for 2 h. Fluorescence intensity was then read using a Polarstar Omega with excitation/emission 560/590. The data was then analyzed using GraphPad Prism 6 software. CC50 values were determined using GraphPad Prism 6 software (Inc. La Jolla, Calif.).

CCCCCCC[C@@H](O)CC(=O)N[C@H](CN)C(=O)N[C@H]1CCNC(=O)[C@H](CC(C)C)NC(=O)[C@H](CCN)NC(=O)[C@H](CCN)NC(=O)[C@H](Cc2ccccc2)NC(=O)[C@@H](CC(C)C)NC(=O)[C@H](CCN)NC1=O [compound 6427, 3(R)OH-nC9CO-D-Dap-cyc[L-Dab-L-Dab-D-Leu-L-Phe-L-Dab-L-Dab-L-Leu]] ({Decanoyl(3R-OH)}-[dDap][Dab][Dab][dL]F[Dab][Dab]L; lactam 2-C)
MIC A. baumannii ATCC 19606 (A. baumannii ATCC 19606; ATCC 19606): 8 µg/mL (≈ 7.76 µM) | MIC A. baumannii GN_093 PmxR (A. baumannii GN_093 PmxR; GN 093 PmxR): 16 µg/mL (≈ 15.5 µM) | MIC E. coli ATCC 25922 (E. coli ATCC 25922; ATCC 25922): 8 µg/mL (≈ 7.76 µM) | MIC K. pneumoniae ATCC 13883 (K. pneumoniae ATCC 13883; ATCC 13883): 8 µg/mL (≈ 7.76 µM) | MIC K. pneumoniae ATCC 700603, MDR ([1]; ATCC 700603): 8 µg/mL (≈ 7.76 µM) | MIC K. pneumoniae ATCC BAA-2146, NDM-1 pos ([2]; ATCC BAA-2146): 8 µg/mL (≈ 7.76 µM) | MIC K. pneumoniae GN_102 PmxR ([3]; GN 102 PmxR): 4 µg/mL (≈ 3.88 µM) | MIC K. pneumoniae GN_106, PmxR ([4]; GN 106, PmxR): 4 µg/mL (≈ 3.88 µM) | MIC P. aeruginosa ATCC 27853 (P. aeruginosa ATCC 27853; ATCC 27853): 4 µg/mL (≈ 3.88 µM) | MIC P. aeruginosa GN_043, PmxR [5]: 4 µg/mL (≈ 3.88 µM) | MIC P. aeruginosa GN_105, PmxR ([6]; GN 105, PmxR): 2 µg/mL (≈ 1.94 µM) | MIC S. aureus ATCC 25923, MSSA ([7]; ATCC 25923): 32 µg/mL (≈ 31.1 µM) | CC50 at 24 h (in vitro [8]): > 300 µM | CC50 at 24 h (in vitro [9]): 123 µM | CC50 at 24 h (in vitro [10]): > 300 µM

CCCCCCC[C@@H](O)CC(=O)N[C@H](CCCN)C(=O)N[C@H]1CCNC(=O)[C@H](CC(C)C)NC(=O)[C@H](CCN)NC(=O)[C@H](CCN)NC(=O)[C@H](Cc2ccccc2)NC(=O)[C@@H](CC(C)C)NC(=O)[C@H](CCN)NC1=O [compound 6428, 3(R)OH-nC9CO-D-Orn-cyc[L-Dab-L-Dab-D-Leu-L-Phe-L-Dab-L-Dab-L-Leu]] ({Decanoyl(3R-OH)}-[dOrn][Dab][Dab][dL]F[Dab][Dab]L; lactam 2-C)
MIC A. baumannii ATCC 19606 (A. baumannii ATCC 19606; ATCC 19606): 32 µg/mL (≈ 30.2 µM) | MIC A. baumannii GN_093 PmxR (A. baumannii GN_093 PmxR; GN 093 PmxR): 16 µg/mL (≈ 15.1 µM) | MIC E. coli ATCC 25922 (E. coli ATCC 25922; ATCC 25922): 16 µg/mL (≈ 15.1 µM) | MIC K. pneumoniae ATCC 13883 (K. pneumoniae ATCC 13883; ATCC 13883): 16 µg/mL (≈ 15.1 µM) | MIC K. pneumoniae ATCC 700603, MDR ([1]; ATCC 700603): 8 µg/mL (≈ 7.56 µM) | MIC K. pneumoniae ATCC BAA-2146, NDM-1 pos ([2]; ATCC BAA-2146): 16 µg/mL (≈ 15.1 µM) | MIC K. pneumoniae GN_102 PmxR ([3]; GN 102 PmxR): 2 µg/mL (≈ 1.89 µM) | MIC K. pneumoniae GN_106, PmxR ([4]; GN 106, PmxR): 4 µg/mL (≈ 3.78 µM) | MIC P. aeruginosa ATCC 27853 (P. aeruginosa ATCC 27853; ATCC 27853): 4 µg/mL (≈ 3.78 µM) | MIC P. aeruginosa GN_043, PmxR [5]: 4 µg/mL (≈ 3.78 µM) | MIC P. aeruginosa GN_105, PmxR ([6]; GN 105, PmxR): 4 µg/mL (≈ 3.78 µM) | MIC S. aureus ATCC 25923, MSSA ([7]; ATCC 25923): 32 µg/mL (≈ 30.2 µM) | CC50 at 24 h (in vitro [8]): > 300 µM | CC50 at 24 h (in vitro [9]): 137 µM | CC50 at 24 h (in vitro [10]): > 300 µM

CC(C)C[C@@H]1NC(=O)[C@H](CCN)NC(=O)[C@H](CCN)NC(=O)[C@H](Cc2ccccc2)NC(=O)[C@@H](CC(C)C)NC(=O)[C@H](CCN)NC(=O)[C@@H](NC(=O)[C@@H](CCN)NC(=O)CCCCCCCO)CCNC1=O [compound 6514, 8OH-nC7CO-D-Dab-cyc[L-Dab-L-Dab-D-Leu-L-Phe-L-Dab-L-Dab-L-Leu]] (X5-[dDab][Dab][Dab][dL]F[Dab][Dab]L; lactam 2-C)
MIC A. baumannii ATCC 19606 (A. baumannii ATCC 19606; A. baumannii ATCC 19606): >32 µg/mL | MIC A. baumannii GN_093 PmxR (A. baumannii GN_093 PmxR; A. baumannii GN_093 PmxR): >32 µg/mL | MIC E. coli ATCC 25922 (E. coli ATCC 25922; E. coli ATCC 25922): >32 µg/mL | MIC K. pneumoniae ATCC 13883 (K. pneumoniae ATCC 13883; K. pneumoniae ATCC 13883): >32 µg/mL | MIC K. pneumoniae ATCC 700603, MDR ([1]; K. pneumoniae ATCC 700603, MDR): >32 µg/mL | MIC K. pneumoniae ATCC BAA-2146, NDM-1 pos ([2]; K. pneumoniae ATCC BAA-2146, NDM-1 pos): >32 µg/mL | MIC K. pneumoniae GN_102 PmxR ([3]; K. pneumoniae GN_102 PmxR): >32 µg/mL | MIC K. pneumoniae GN_106, PmxR ([4]; K. pneumoniae GN_106, PmxR): >32 µg/mL | MIC P. aeruginosa ATCC 27853 (P. aeruginosa ATCC 27853; P. aeruginosa ATCC 27853): 8 µg/mL (≈ 7.87 µM) | MIC P. aeruginosa GN_043, PmxR [5]: 4 µg/mL (≈ 3.94 µM) | MIC P. aeruginosa GN_105, PmxR ([6]; P. aeruginosa GN_105, PmxR): >32 µg/mL | MIC S. aureus ATCC 25923, MSSA ([7]; S. aureus ATCC 25923, MSSA): >32 µg/mL | CC50 at 24 h (in vitro [8]): > 300 µM | CC50 at 24 h (in vitro [9]): > 300 µM | CC50 at 24 h (in vitro [10]): > 300 µM
